Values joined by “and” are separate entries in the source; they are usually repeats but may differ in a detail not shown here. Equal values may be shown once. Inconclusive results and toxic doses are left out. The calls were made as follows: active = survival T/C of 150% or more; inactive = T/C below 125% in these data.
System: CD2F1 mice, L1210 leukemia ip, survival T/C
Assay: NCI In Vivo Anticancer Drug Screen. Data for tumor model L1210 Leukemia (intraperitoneal) in CD2F1 (CDF1) mice
Details: endpoint: mean survival time, higher = longer survival
In short: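 Each value reflects a quotient of treated over vehicle control outcomes in mice with a transplanted tumor.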

[1] = dose: 100.0 mg/kg/injection, schedule: Q04DX003 (ip), vehicle: saline with Tween-80
[2] = dose: 200.0 mg/kg/injection, schedule: Q04DX003 (ip), vehicle: saline with Tween-80
[3] = dose: 400.0 mg/kg/injection, schedule: Q04DX003 (ip), vehicle: saline with Tween-80
[4] = dose: 100.0 mg/kg/injection, schedule: Q01DX001 (ip), vehicle: saline with Tween-80
[5] = dose: 200.0 mg/kg/injection, schedule: Q01DX001 (ip), vehicle: saline with Tween-80
[6] = dose: 50.0 mg/kg/injection, schedule: Q04DX003 (ip), vehicle: saline
[7] = dose: 100.0 mg/kg/injection, schedule: Q01DX009 (ip), vehicle: saline with Tween-80
[8] = dose: 200.0 mg/kg/injection, schedule: Q01DX009 (ip), vehicle: saline with Tween-80
[9] = dose: 400.0 mg/kg/injection, schedule: Q01DX009 (ip), vehicle: saline with Tween-80
[10] = dose: 100.0 mg/kg/injection, schedule: Q04DX003 (ip), vehicle: saline
[11] = dose: 200.0 mg/kg/injection, schedule: Q04DX003 (ip), vehicle: saline
[12] = dose: 400.0 mg/kg/injection, schedule: Q01DX001 (ip), vehicle: saline with Tween-80
[13] = dose: 100.0 mg/kg/injection, schedule: Q04DX002 (ip), vehicle: saline with Tween-80

Measured: T/C

COC12C(COC(N)=O)C3=C(C(=O)C(C)=C(NC(C)C)C3=O)N1CC1NC12 (stereo unspecified)
inactive: dose: 1.5 mg/kg/injection, schedule: Q01DX001 (ip), vehicle: water 96 % of control (2×) and 102 % of control | dose: 48.0 mg/kg/injection, schedule: Q01DX001 (ip), vehicle: water 87 % of control

CCOC(=O)C(CNc1ccccc1)C(=O)OCC
inactive: [1] 101 % of control | [2] 104 % of control | [3] 104 % of control

NS(=O)(=O)c1ccc(Cl)c2ccccc12
inactive: [4] 93 % of control | [5] 98 % of control

Cc1cc2nc3ccc(=[N+](C)C)cc-3sc2cc1N
inactive: dose: 25.0 mg/kg/injection, schedule: Q04DX003 (ip), vehicle: saline 109 % of control | [6] 102 % of control

CC(C#N)(Nc1ccccc1)c1ccccn1 (stereo unspecified)
inactive: [1] 101 % of control | [2] 93 % of control | [3] 89 % of control

O=NN1CCOC1=NC1CCCCC1
inactive: dose: 3.12 mg/kg/injection, schedule: Q01DX001 (ip), vehicle: distilled water + Tween-80 97 % of control | dose: 6.25 mg/kg/injection, schedule: Q01DX001 (ip), vehicle: distilled water + Tween-80 94 % of control | dose: 12.5 mg/kg/injection, schedule: Q01DX001 (ip), vehicle: distilled water + Tween-80 98 % of control | dose: 25.0 mg/kg/injection, schedule: Q01DX001 (ip), vehicle: distilled water + Tween-80 97 % of control | dose: 50.0 mg/kg/injection, schedule: Q01DX001 (ip), vehicle: distilled water + Tween-80 100 % of control | dose: 100.0 mg/kg/injection, schedule: Q01DX001 (ip), vehicle: distilled water + Tween-80 100 % of control | dose: 200.0 mg/kg/injection, schedule: Q01DX001 (ip), vehicle: distilled water + Tween-80 110 % of control | dose: 400.0 mg/kg/injection, schedule: Q01DX001 (ip), vehicle: distilled water + Tween-80 110 % of control

CCCCCNC(=O)Nc1cccc(Cl)c1C
inactive: [7] 94 % of control | [1] 88 % of control | [8] 92 % of control | [2] 92 % of control | [3] 92 % of control

O=C(O)CCC(=O)CCC(=O)c1ccccc1
inactive: dose: 50.0 mg/kg/injection, schedule: Q01DX009 (ip), vehicle: saline with Tween-80 96 % of control | [7] 98 % of control | [1] 91 % of control | [8] 98 % of control

CCOC(=O)CC(c1ccccc1)C(C(=O)OCC)C(=O)OCC (stereo unspecified)
inactive: [7] 91 % of control | [8] 91 % of control | [9] 98 % of control

CCCCCC/C=N/[N+](C)(C)C
inactive: dose: 12.5 mg/kg/injection, schedule: Q01DX009 (ip), vehicle: saline 114 % of control | dose: 25.0 mg/kg/injection, schedule: Q01DX009 (ip), vehicle: saline 101 % of control | dose: 50.0 mg/kg/injection, schedule: Q01DX009 (ip), vehicle: saline 101 % of control and 107 % of control

CCOC(=O)CC(C)(CC(=O)OCC)C(C#N)C(=O)OCC (stereo unspecified)
inactive: [1] 116 % of control | [2] 119 % of control | [3] 120 % of control

O=C(O)C1C2C/C(=N\O)C(C2)C1C(=O)O (stereo unspecified)
inactive: [6] 94 % of control | [10] 101 % of control | [11] 103 % of control

COc1ccc(-n2c(=O)c(N=Nc3ccccc3)c(O)n(-c3ccc(C)cc3)c2=S)cc1
inactive: dose: 100.0 mg/kg/injection, schedule: Q01DX001 (ip), vehicle: acetone 96 % of control | dose: 200.0 mg/kg/injection, schedule: Q01DX001 (ip), vehicle: acetone 94 % of control | dose: 400.0 mg/kg/injection, schedule: Q01DX001 (ip), vehicle: acetone 96 % of control

CN1CCCC1CCNc1nc(C(Cl)(Cl)Cl)nc2cc(Cl)ccc12 (stereo unspecified)
inactive: [7] 98 % of control | [1] 95 % of control | [8] 98 % of control | [2] 90 % of control | [9] 101 % of control | [3] 100 % of control

O=C(O)c1ccccc1C(=O)c1cccc2ccccc12
inactive: [1] 104 % of control | [2] 96 % of control

COc1ccc(C2C3CN(C4CCCCC4)C(=O)C3(O)NN2C)cc1 (stereo unspecified)
inactive: [4] 91 % of control | [5] 88 % of control | [12] 91 % of control

COc1ccc(NC(=O)Oc2c(C)cccc2C)cc1
inactive: [13] 97 % of control | dose: 200.0 mg/kg/injection, schedule: Q04DX002 (ip), vehicle: saline with Tween-80 97 % of control | dose: 400.0 mg/kg/injection, schedule: Q04DX002 (ip), vehicle: saline with Tween-80 101 % of control

Cn1c(=O)c(CC(O)C(Cl)(Cl)Cl)nc2ccccc21 (stereo unspecified)
inactive: dose: 100.0 mg/kg/injection, schedule: Q04DX003 (ip), vehicle: Klucel (hydroxypropylcellulose) (HPC) 95 % of control | dose: 200.0 mg/kg/injection, schedule: Q04DX003 (ip), vehicle: Klucel (hydroxypropylcellulose) (HPC) 95 % of control | dose: 400.0 mg/kg/injection, schedule: Q04DX003 (ip), vehicle: Klucel (hydroxypropylcellulose) (HPC) 98 % of control

CC1C(=O)OC2C1CCC1(C)C3OC3C(=O)C3(C)OC231 (stereo unspecified)
inactive: [13] 96 % of control

CC(C)(C)/C(=N\Nc1ccc([N+](=O)[O-])cc1[N+](=O)[O-])c1ccccc1
inactive: dose: 25.0 mg/kg/injection, schedule: Q01DX001 (ip), vehicle: saline with Tween-80 97 % of control | dose: 50.0 mg/kg/injection, schedule: Q01DX001 (ip), vehicle: saline with Tween-80 95 % of control | [4] 97 % of control

COc1ccc(C(C)C(O)c2ccccc2)cc1 (stereo unspecified)
inactive: [10] 103 % of control | [11] 108 % of control | dose: 400.0 mg/kg/injection, schedule: Q04DX003 (ip), vehicle: saline 102 % of control

CC(C)NCc1ccc2c(c1)OCO2
inactive: dose: 75.0 mg/kg/injection, schedule: Q01DX001 (ip), vehicle: saline 98 % of control | dose: 150.0 mg/kg/injection, schedule: Q01DX001 (ip), vehicle: saline 101 % of control

Cc1c2ccn(O)cc2c(C)c2c1nc1ccccc12
inactive: dose: 25.0 mg/kg/injection, schedule: Q04DX003 (ip), vehicle: water 110 % of control | dose: 50.0 mg/kg/injection, schedule: Q04DX003 (ip), vehicle: water 103 % of control | dose: 100.0 mg/kg/injection, schedule: Q04DX003 (ip), vehicle: water 110 % of control | dose: 200.0 mg/kg/injection, schedule: Q04DX003 (ip), vehicle: water 105 % of control | dose: 400.0 mg/kg/injection, schedule: Q04DX003 (ip), vehicle: water 106 % of control

[N-]=[N+]=NC1C(O)C(CO)OC1n1c(=O)[nH]c2c(N)ncnc21 (stereo unspecified)
inactive: dose: 12.5 mg/kg/injection, schedule: Q01DX005 (ip), vehicle: water 94 % of control | dose: 25.0 mg/kg/injection, schedule: Q01DX005 (ip), vehicle: water 99 % of control | dose: 50.0 mg/kg/injection, schedule: Q01DX005 (ip), vehicle: water 97 % of control | dose: 100.0 mg/kg/injection, schedule: Q01DX005 (ip), vehicle: water 97 % of control | dose: 200.0 mg/kg/injection, schedule: Q01DX005 (ip), vehicle: water 97 % of control

CCc1ncc(C(C)(O)c2ccccc2)n1Cc1ccccc1 (stereo unspecified)
inactive: [7] 95 % of control | [8] 90 % of control | [9] 94 % of control

O=c1[nH]cccc1[N+](=O)[O-]
inactive: [1] 106 % of control | [2] 106 % of control | [3] 101 % of control

CC(CO)CCC1OC2CC3C4CCC5CC(O)CCC5(C)C4CCC3(C)C2C1C (stereo unspecified)
inactive: [4] 95 % of control | [5] 94 % of control

Cc1ncc(C=C(C(=O)O)C(=O)O)n1Cc1ccccc1
inactive: [4] 98 % of control | [5] 104 % of control | [12] 104 % of control
